ChEMBL document CHEMBL5465560, “Selectivity Literature for EUbOPEN Chemogenomic Library” (2024)

Assays:
[1] = target: Cyclin-dependent kinase-like 3 (Homo sapiens) (UniProt Q8IVW4); assay: Selectivity interaction (KinomeScan (DiscoverX)) EUB0001049a CDKL3; conditions: at 1 µM
[2] = target: Dual specificity mitogen-activated protein kinase kinase 1 (Homo sapiens, UniProt Q02750); assay: Selectivity interaction (Ambit KINOMEscan and KiNATiv profiling in Jurkat cells) EUB0000090b MAP2K1; assay type: cell-based; conditions: at 1 µM
[3] = target: Tyrosine-protein kinase Blk (Homo sapiens) (UniProt P51451); assay: Selectivity interaction (KinomeScan (DiscoverX)) EUB0000045b BLK
[4] = target: T1, Mitogen-activated protein kinase kinase kinase 6 (Homo sapiens) (UniProt O95382); assay: Selectivity interaction (KinomeScan (DiscoverX)) EUB0000092b MAP3K6; conditions: at 10 µM
T1 sequence (whole entry): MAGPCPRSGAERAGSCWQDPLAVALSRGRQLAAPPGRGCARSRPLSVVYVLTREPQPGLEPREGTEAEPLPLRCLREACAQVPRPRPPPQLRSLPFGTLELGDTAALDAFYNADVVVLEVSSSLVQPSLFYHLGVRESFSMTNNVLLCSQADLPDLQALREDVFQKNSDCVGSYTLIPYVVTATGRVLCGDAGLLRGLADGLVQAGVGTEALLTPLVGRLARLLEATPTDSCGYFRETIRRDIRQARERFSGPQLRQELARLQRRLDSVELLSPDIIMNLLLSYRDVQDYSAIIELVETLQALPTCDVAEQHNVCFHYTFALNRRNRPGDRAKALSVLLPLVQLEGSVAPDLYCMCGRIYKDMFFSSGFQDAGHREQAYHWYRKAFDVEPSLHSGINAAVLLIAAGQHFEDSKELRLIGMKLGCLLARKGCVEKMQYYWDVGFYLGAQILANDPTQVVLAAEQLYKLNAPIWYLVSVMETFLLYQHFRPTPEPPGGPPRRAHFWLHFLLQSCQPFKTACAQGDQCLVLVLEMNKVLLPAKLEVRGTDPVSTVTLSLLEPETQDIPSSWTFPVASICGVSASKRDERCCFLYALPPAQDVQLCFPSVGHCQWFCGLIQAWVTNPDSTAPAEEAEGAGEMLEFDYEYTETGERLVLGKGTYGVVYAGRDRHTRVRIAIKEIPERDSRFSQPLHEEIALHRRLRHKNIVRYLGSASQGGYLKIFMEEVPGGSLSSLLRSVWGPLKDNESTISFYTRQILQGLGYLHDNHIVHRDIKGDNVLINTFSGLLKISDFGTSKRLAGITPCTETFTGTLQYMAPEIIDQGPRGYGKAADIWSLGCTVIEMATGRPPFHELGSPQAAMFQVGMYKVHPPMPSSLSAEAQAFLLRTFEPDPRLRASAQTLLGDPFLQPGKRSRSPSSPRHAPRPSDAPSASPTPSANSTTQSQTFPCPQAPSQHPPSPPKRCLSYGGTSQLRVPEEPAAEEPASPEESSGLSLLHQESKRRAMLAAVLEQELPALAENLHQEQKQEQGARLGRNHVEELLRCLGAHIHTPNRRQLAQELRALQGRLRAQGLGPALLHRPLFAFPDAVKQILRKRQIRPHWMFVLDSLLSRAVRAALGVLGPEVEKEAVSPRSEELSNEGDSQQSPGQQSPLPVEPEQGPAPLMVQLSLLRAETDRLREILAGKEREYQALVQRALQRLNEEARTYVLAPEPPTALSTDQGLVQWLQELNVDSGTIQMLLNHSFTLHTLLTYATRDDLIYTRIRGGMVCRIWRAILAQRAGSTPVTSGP

[5] = target: T2, NUAK family SNF1-like kinase 1 (Homo sapiens) (UniProt O60285); assay: Selectivity interaction (KinomeScan (DiscoverX)) EUB0000092b NUAK1; conditions: at 10 µM
T2 sequence (whole entry): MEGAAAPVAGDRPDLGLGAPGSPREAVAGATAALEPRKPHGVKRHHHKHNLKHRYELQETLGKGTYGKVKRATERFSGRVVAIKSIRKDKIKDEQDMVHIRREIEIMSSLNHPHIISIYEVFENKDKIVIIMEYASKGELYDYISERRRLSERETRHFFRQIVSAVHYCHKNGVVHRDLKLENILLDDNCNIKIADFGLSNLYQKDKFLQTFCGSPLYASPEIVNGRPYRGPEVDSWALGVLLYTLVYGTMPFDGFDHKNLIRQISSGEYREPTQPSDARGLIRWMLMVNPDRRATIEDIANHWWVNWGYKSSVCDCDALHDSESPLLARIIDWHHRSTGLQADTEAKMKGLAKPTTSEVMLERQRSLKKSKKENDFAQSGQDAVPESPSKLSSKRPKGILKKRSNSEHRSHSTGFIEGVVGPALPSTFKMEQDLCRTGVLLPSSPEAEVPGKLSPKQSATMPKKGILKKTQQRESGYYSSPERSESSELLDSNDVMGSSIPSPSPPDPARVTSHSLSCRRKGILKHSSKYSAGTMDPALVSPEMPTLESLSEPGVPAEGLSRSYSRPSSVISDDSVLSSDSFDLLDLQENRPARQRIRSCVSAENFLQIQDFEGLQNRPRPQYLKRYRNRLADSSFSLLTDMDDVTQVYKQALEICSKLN

[6] = target: T3, Serine/threonine-protein kinase tousled-like 1 (Homo sapiens) (UniProt Q9UKI8); conditions: at 10 µM
T3 sequence (whole entry): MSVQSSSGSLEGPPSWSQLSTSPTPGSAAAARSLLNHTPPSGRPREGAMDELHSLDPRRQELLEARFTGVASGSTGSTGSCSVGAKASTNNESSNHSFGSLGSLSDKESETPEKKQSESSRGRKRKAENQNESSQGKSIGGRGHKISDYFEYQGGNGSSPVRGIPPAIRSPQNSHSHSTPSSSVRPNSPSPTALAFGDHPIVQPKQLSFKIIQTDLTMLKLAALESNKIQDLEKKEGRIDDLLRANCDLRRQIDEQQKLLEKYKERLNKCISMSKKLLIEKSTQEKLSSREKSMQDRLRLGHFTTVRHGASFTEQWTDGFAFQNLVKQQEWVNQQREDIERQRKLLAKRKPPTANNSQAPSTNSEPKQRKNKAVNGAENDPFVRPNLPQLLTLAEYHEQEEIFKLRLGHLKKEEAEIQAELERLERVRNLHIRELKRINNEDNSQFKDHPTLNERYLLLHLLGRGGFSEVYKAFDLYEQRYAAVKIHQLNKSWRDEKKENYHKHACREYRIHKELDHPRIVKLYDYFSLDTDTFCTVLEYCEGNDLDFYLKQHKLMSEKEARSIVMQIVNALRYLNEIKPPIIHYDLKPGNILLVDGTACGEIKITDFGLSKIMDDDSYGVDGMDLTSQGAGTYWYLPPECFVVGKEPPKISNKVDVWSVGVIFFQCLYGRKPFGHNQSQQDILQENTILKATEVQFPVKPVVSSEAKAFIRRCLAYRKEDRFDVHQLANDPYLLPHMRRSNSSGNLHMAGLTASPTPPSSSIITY

[7] = target: T3, Serine/threonine-protein kinase tousled-like 1 (Homo sapiens); assay: Selectivity interaction (KinomeScan (DiscoverX)) EUB0000618a TLK1; conditions: at 10 µM

Chain of Tyrosine-protein kinase Blk (Homo sapiens) (P51451 2-505 limits assumed): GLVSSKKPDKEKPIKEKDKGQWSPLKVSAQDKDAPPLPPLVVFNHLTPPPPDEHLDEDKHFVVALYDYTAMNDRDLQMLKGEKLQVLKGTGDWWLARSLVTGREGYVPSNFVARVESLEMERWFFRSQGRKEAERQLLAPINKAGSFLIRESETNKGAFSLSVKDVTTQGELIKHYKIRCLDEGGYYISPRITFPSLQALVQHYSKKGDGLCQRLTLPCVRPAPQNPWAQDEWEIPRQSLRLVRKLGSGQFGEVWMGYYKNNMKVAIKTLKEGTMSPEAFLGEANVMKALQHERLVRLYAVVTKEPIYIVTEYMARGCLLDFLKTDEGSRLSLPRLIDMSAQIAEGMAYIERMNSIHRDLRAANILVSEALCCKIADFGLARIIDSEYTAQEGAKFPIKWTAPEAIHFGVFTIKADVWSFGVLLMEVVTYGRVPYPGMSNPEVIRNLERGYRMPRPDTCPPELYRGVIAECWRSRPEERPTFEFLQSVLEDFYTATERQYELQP
Chain of Dual specificity mitogen-activated protein kinase kinase 1 (Q02750 whole entry): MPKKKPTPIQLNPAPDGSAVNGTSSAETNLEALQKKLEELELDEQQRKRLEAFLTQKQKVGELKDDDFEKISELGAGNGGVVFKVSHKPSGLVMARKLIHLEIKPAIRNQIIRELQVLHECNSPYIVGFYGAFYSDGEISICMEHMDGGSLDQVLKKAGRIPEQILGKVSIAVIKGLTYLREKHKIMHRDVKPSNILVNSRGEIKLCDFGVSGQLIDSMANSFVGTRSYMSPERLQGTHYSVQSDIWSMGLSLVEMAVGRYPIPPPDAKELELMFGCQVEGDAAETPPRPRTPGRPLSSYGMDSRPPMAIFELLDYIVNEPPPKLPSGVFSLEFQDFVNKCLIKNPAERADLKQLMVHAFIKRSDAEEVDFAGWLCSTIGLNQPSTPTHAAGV
Chain of Cyclin-dependent kinase-like 3 (Homo sapiens) (Q8IVW4 whole entry, looked up): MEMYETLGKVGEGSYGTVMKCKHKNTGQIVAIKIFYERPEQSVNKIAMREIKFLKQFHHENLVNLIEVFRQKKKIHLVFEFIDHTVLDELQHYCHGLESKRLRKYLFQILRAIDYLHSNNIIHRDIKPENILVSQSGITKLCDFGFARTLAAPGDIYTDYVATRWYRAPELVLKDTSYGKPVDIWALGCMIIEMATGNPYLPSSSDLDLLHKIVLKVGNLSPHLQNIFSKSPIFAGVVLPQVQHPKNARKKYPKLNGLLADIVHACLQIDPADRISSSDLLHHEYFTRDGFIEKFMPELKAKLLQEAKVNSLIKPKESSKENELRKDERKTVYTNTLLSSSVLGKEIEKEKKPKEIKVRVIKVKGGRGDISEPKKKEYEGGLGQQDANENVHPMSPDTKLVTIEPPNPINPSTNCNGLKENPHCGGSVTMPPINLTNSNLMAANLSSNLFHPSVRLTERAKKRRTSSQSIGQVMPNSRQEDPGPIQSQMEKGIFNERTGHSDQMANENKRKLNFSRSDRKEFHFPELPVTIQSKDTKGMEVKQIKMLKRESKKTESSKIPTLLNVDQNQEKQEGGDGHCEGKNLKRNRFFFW

COc1cc(Nc2nc(C)cc(-c3cnn4nc(OC)ccc34)n2)cc(C(F)(F)F)c1
% of control [1]: 94%

CN(C)C/C=C/C(=O)Nc1ccc(C(=O)N2CCCC(Nc3ncc(Cl)c(-c4c[nH]c5ccccc45)n3)C2)cc1 (stereo not drawn)
% of control [2]: 99%

C=CC(=O)Nc1cc(-n2c(=O)ccc3cnc4ccc(-c5ccc(NS(C)(=O)=O)cc5)cc4c32)ccc1C
% of control ([3]; at 1 µM): 40% | % of control ([3]; at 10 µM): 4.8%

CCC(=O)N1CCN(c2ccc(-n3c(=O)ccc4cnc5ccc(-c6cnc7ccccc7c6)cc5c43)cc2C(F)(F)F)CC1
% of control [4]: 100% | % of control [5]: 100%

Cc1cc([C@@H](C)Nc2ccccc2C(=O)O)c2nc(N3CCOCC3)cc(=O)n2c1 [AZD-6482]
% of control [6]: 96%

O[C@H]1CC[C@H](Nc2ncc3nc(Nc4c(F)cc(F)cc4F)n([C@H]4CCOC4)c3n2)CC1
% of control [7]: 50%
